Activity calls are given as the source filed them. No cut-off for these calls is given here.
Columns and labels:
GM16216 [1] = test: Effect on mitochondrial membrane potential in human GM16216 cells assessed as loss of mitochondrial membrane potential at 0.25 uM after 16 hrs by JC1 staining based flow cytometry (reference value: 13%); format: functional
GM15850 [2] = test: Cytoprotection against DEM-induced toxicity in human GM15850 cells assessed as increase in cell viability at 0.5 to 2.5 uM pretreated for 16 hrs followed by DEM addition and measured after 5 hrs by live/dead staining based flow cytometry; format: functional
GM16216 [3] = test: Inhibition of ATP production in human GM16216 cells at 2.5 uM after 24 hrs by Vialight reagent based luminescence assay; format: functional, cell-based
GM15850 [4] = test: Effect on mitochondrial membrane potential in human GM15850 cells assessed as loss of mitochondrial membrane potential at 0.25 uM after 16 hrs by JC1 staining based flow cytometry (reference value: 13%); format: functional
GM15850 [5] = test: Increase in ATP production in human GM15850 cells at 0.1 to 0.5 uM after 24 hrs by Vialight reagent based luminescence assay; format: functional, cell-based
GM16216 [6] = test: Effect on mitochondrial membrane potential in human GM16216 cells assessed as intact mitochondrial membrane at 0.25 uM after 16 hrs by JC1 staining based flow cytometry (reference value: 87%); format: functional
GM15850 [7] = test: Effect on mitochondrial membrane potential in human GM15850 cells assessed as intact mitochondrial membrane at 0.25 uM after 16 hrs by JC1 staining based flow cytometry (reference value: 87%); format: functional
GM16216 [8] = test: Increase in frataxin expression in human GM16216 cells at 250 nM after 24 to 48 hrs by ELISA; format: functional, cell-based
GM16216 [9] = test: Increase in frataxin expression in human GM16216 cells at 50 nM after 24 to 48 hrs by ELISA; format: functional, cell-based
GM16216 [10] = test: Increase in ATP production in human GM16216 cells at 0.1 to 0.5 uM after 24 hrs by Vialight reagent based luminescence assay; format: functional, cell-based
GM16216 [11] = test: Cytoprotection against DEM-induced toxicity in human GM16216 cells assessed as increase in cell viability at 0.5 to 2.5 uM pretreated for 16 hrs followed by DEM addition and measured after 5 hrs by live/dead staining based flow cytometry; format: functional
GM15850 [12] = test: Increase in frataxin expression in human GM15850 cells at 250 nM after 24 to 48 hrs by ELISA; format: functional, cell-based
GM15850 [13] = test: Inhibition of ATP production in human GM15850 cells at 2.5 uM after 24 hrs by Vialight reagent based luminescence assay; format: functional, cell-based
GM15850 [14] = test: Increase in frataxin expression in human GM15850 cells at 50 nM after 24 to 48 hrs by ELISA; format: functional, cell-based
GM16216 [15] = test: Cytotoxicity against human GM16216 cells at 0.25 to 2.5 uM after 24 to 48 hrs by live/dead staining-based flow cytometry; format: cell-based; conditions: gm16216, 2.5 µM
GM15850 [16] = test: Cytotoxicity against human GM15850 cells at 0.25 to 2.5 uM after 24 to 48 hrs by live/dead staining-based flow cytometry; format: cell-based; conditions: gm15850, 2.5 µM
GM16216 [17] = test: Effect on ATP production in human GM16216 cells at 0.1 to 0.5 uM after 24 hrs by Vialight reagent based luminescence assay; format: functional, cell-based
GM15850 [18] = test: Effect on ATP production in human GM15850 cells at 0.1 to 0.5 uM after 24 hrs by Vialight reagent based luminescence assay; format: functional, cell-based
GM16216 [19] = test: Increase in frataxin expression in human GM16216 cells at 50 to 250 nM after 24 to 48 hrs by ELISA; format: functional, cell-based
GM15850 [20] = test: Induction of mitochondrial biogenesis in human GM15850 cells assessed as increase in ratio of COX1 to SDH-A protein levels at 50 to 250 nM after 24 to 48 hrs by ELISA; format: functional, cell-based
GM15850 [21] = test: Increase in frataxin expression in human GM15850 cells at 50 to 250 nM after 24 to 48 hrs by ELISA; format: functional, cell-based
GM16216 [22] = test: Induction of mitochondrial biogenesis in human GM16216 cells assessed as increase in ratio of COX1 to SDH-A protein levels at 50 to 250 nM after 24 to 48 hrs by ELISA; format: functional, cell-based
GM16216 [23] = test: Induction of mitochondrial biogenesis in human GM16216 cells assessed as ratio of COX1 to SDH-A protein levels at 250 after 48 hrs by ELISA relative to control; format: functional
GM15850 [24] = test: Effect on frataxin expression in human GM15850 cells at 250 nM after 24 hrs by ELISA relative to control; format: functional
GM16216 [25] = test: Restoration of total aconitase activity in human GM16216 cells at 50 nM after 5 days by colorimetric method relative to control; format: functional
GM15850 [26] = test: Effect on frataxin expression in human GM15850 cells at 50 nM after 24 hrs by ELISA relative to control; format: functional
GM15850 [27] = test: Effect on frataxin expression in human GM15850 cells at 250 nM after 48 hrs by ELISA relative to control; format: functional
GM16216 [28] = test: Restoration of total aconitase activity in human GM16216 cells at 250 nM after 5 days by colorimetric method relative to control; format: functional
GM16216 [29] = test: Effect on frataxin expression in human GM16216 cells at 50 nM after 48 hrs by ELISA relative to control; format: functional
GM16216 [30] = test: Effect on frataxin expression in human GM16216 cells at 250 nM after 24 hrs by ELISA relative to control; format: functional
GM15850 [31] = test: Cytoprotection against DEM-induced toxicity in human GM15850 cells assessed as increase in cell viability at 0.1 to 2.5 uM pretreated for 16 hrs followed by DEM addition and measured after 5 hrs by live/dead staining based flow cytometry; format: functional
GM15850 [32] = test: Restoration of total aconitase activity in human GM15850 cells at 250 nM after 5 days by colorimetric method relative to control; format: functional
GM16216 [33] = test: Induction of mitochondrial biogenesis in human GM16216 cells assessed as ratio of COX1 to SDH-A protein levels at 250 after 24 hrs by ELISA relative to control; format: functional
GM16216 [34] = test: Induction of mitochondrial biogenesis in human GM16216 cells assessed as ratio of COX1 to SDH-A protein levels at 50 after 48 hrs by ELISA relative to control; format: functional
GM15850 [35] = test: Induction of mitochondrial biogenesis in human GM15850 cells assessed as ratio of COX1 to SDH-A protein levels at 50 after 24 hrs by ELISA relative to control; format: functional
GM15850 [36] = test: Induction of mitochondrial biogenesis in human GM15850 cells assessed as ratio of COX1 to SDH-A protein levels at 250 after 24 hrs by ELISA relative to control; format: functional
GM16216 [37] = test: Induction of mitochondrial biogenesis in human GM16216 cells assessed as ratio of COX1 to SDH-A protein levels at 50 after 24 hrs by ELISA relative to control; format: functional
GM15850 [38] = test: Induction of mitochondrial biogenesis in human GM15850 cells assessed as ratio of COX1 to SDH-A protein levels at 50 after 48 hrs by ELISA relative to control; format: functional
GM16216 [39] = test: Cytoprotection against DEM-induced toxicity in human GM16216 cells assessed as increase in cell viability at 0.1 to 2.5 uM pretreated for 16 hrs followed by DEM addition and measured after 5 hrs by live/dead staining based flow cytometry; format: functional
GM15850 [40] = test: Effect on frataxin expression in human GM15850 cells at 50 nM after 48 hrs by ELISA relative to control; format: functional
GM16216 [41] = test: Effect on frataxin expression in human GM16216 cells at 250 nM after 48 hrs by ELISA relative to control; format: functional
GM16216 [42] = test: Effect on frataxin expression in human GM16216 cells at 50 nM after 24 hrs by ELISA relative to control; format: functional
GM15850 [43] = test: Restoration of total aconitase activity in human GM15850 cells at 50 nM after 5 days by colorimetric method relative to control; format: functional
GM15850 [44] = test: Induction of mitochondrial biogenesis in human GM15850 cells assessed as ratio of COX1 to SDH-A protein levels at 250 after 48 hrs by ELISA relative to control; format: functional

SMILES: CCCCCCCCCCCCCCCCc1cc2nc3ccc(N(C)C)cc3sc-2cc1=[N+](C)C.[I-]
- Activity (GM16216 [1]): 14%
- Activity (GM15850 [2]): Active
- inhibition (GM16216 [3]): Active
- Activity (GM15850 [4]): 14%
- Activity (GM15850 [5]): Active
- Activity (GM16216 [6]): 86%
- Activity (GM15850 [7]): 86%
- Activity (GM16216 [8]): inactive
- Activity (GM16216 [9]): Active
- Activity (GM16216 [10]): Active
- Activity (GM16216 [11]): Active
- Activity (GM15850 [12]): inactive
- inhibition (GM15850 [13]): Active
- Activity (GM15850 [14]): Active
- Activity (GM16216 [15]): Non-Toxic
- Activity (GM15850 [16]): Non-Toxic

SMILES: CCCCCCCCCCCCCc1cc2nc3ccc(N(C)C)cc3sc-2cc1=O
- Activity (GM16216 [1]): 13%
- inhibition (GM16216 [3]): Active
- Activity (GM15850 [4]): 13%
- Activity (GM16216 [6]): 87%
- Activity (GM15850 [7]): 87%
- Activity (GM16216 [17]): inactive
- Activity (GM15850 [18]): inactive
- Activity (GM16216 [19]): Active
- Activity (GM15850 [20]): Active
- Activity (GM15850 [21]): Active
- inhibition (GM15850 [13]): Active
- Activity (GM16216 [15]): Non-Toxic
- Activity (GM15850 [16]): Non-Toxic
- Activity (GM16216 [22]): Active

SMILES: CN(C)c1ccc2nc3ccc(=O)cc-3sc2c1
- Activity (GM16216 [1]): 15%
- Activity (GM16216 [23]): 131%
- Activity (GM15850 [24]): 114%
- Activity (GM15850 [4]): 15%
- Activity (GM16216 [25]): 110%
- Activity (GM15850 [26]): 111%
- Activity (GM15850 [27]): 115%
- Activity (GM16216 [28]): 113%
- Activity (GM16216 [6]): 85%
- Activity (GM16216 [29]): 113%
- Activity (GM15850 [7]): 85%
- Activity (GM16216 [30]): 114%
- Activity (GM15850 [31]): Active
- Activity (GM15850 [32]): 113%
- Activity (GM16216 [33]): 117%
- Activity (GM16216 [34]): 122%
- Activity (GM15850 [35]): 115%
- Activity (GM15850 [36]): 117%
- Activity (GM16216 [37]): 115%
- Activity (GM15850 [38]): 122%
- Activity (GM16216 [39]): Active
- Activity (GM15850 [40]): 113%
- Activity (GM16216 [41]): 115%
- Activity (GM16216 [42]): 111%
- Activity (GM15850 [43]): 110%
- Activity (GM15850 [44]): 131%

Source: ChEMBL document CHEMBL4257548, “Phenothiazine antioxidants increase mitochondrial biogenesis and frataxin levels in Friedreich's ataxia cells” (Medchemcomm, 2018)
